Read-outs that look alike come from different tables or passages of the source. Where a SMILES comes first, the peptide text is derived from it. Where no end group is shown, it is not given here.
Tested on: HL-60 cells differentiated into the neutrophil-like cells
Test: β-hexosaminidase-secreting activity of neutrophil-like differentiated HL-60 cells
Format: cell-based, human
Details: for Activity (β-hexosaminidase-secreting activity class): lowest concentration class at which secretion was confirmed
Description: (1) Culture of Cell and Differentiation Into Neutrophil-like Cell
In this time, the cells were subcultured at a cell density of 1.0×10^5 cells/ml to 1.5×10^6 cells/ml, the number of cells was counted using a microscope, and the state of the cells was also confirmed.
The HL-60 cells were differentiated into neutrophil-like cells by setting the cell density in the flask to about 1.0×10^6 cells/ml, adding dibutylyl-cAMP (db-cAMP) as a differentiation-inducing agent so as to have a final concentration of 500 μM, and incubating the cells in the presence of CO2 at 37° C. for 3 days.
(2) Stimulation of Cell and Measurement of β-Hexosaminidase-secreting Activity
The cells were collected by centrifuging the suspension of the differentiated HL-60 cells (1,000 rpm, 5 minutes, 4° C.). After that, the following operation was repeated three times to wash the cells: Hepes buffered Hank's solution (HBHS) containing ice-cooled 0.1% BSA (1.2 mM CaCl2.2H2O, 5.4 mM KCl, 0.44 mM KH2PO4, 0.49 mM MgCl2.6H2O, 0.41 mM MgSO4.7H2O, 136.9 mM NaCl, 0.34 mM Na2HPO4, 10 mM Hepes, 4.2 mM NaHCO3, 5.5 mM D-glucose, pH 7.4) was added to the cells; the mixture was suspended by inversion; and the mixture was centrifuged again (1,000 rpm, 5 minutes, 4° C.). Subsequently, HBHS was added so that the mixture has a cell density of 5.6×10^6 cells/ml and suspended. Then, DNase I and cytochalasin B were each added so as to have a final concentration of 5 μg/ml, and the cell suspension was dispensed in an amount of 90 μl (5×10^5 cells) on ice. […] After the cell stimulation for 10 minutes, 100 μl of an ice-cooled stop solution (25 mM Tris, 123 mM NaCl, 2.7 mM KCl, pH 7.4) were added, and immediately, the mixture was centrifuged (5,000 rpm, 1 minute, 4° C.). 200 μl of the obtained supernatant were transferred to a new tube.
The amount of β-hexosaminidase released in the supernatant of the reaction solution was measured by an enzyme reaction using p-nitrophenyl-N-acetyl-μ-D-glucosaminide as a substrate (Non-patent Document 12). That is, the supernatant of the reaction solution was dispensed in an amount of 90 μl to a 96-well plate. 60 μl of a substrate solution (10 mM p-nitrophenyl-N-acetyl-μ-D-glucosaminide, 40 mM citrate, 70 mM Na2HPO4, pH 4.5) were added to each well, followed by incubation at 37° C. for 1 hour. After the reaction, 100 μl of a stop solution (0.4 M glycine, pH 10.7) were added to each well and a color of the released p-nitrophenol was developed. The color development was measured with a plate reader at adsorption at 405 nm (reference: 492 nm). The all amount of β-hexosaminidase contained in the cells was quantified by treating the cells with Triton X-100 having a final concentration of 0.05%. In addition, the amount of β-hexosaminidase secreted by stimulation of 10 μM fMLP was also measured, and the ratio of the secretion amount by stimulation with each peptide to the above sectretion amount by stimulation with fMLP.

[1] = neutrophil-like differentiated HL-60 cells, Table 1, read-out: EC50 (μM), β-hexosaminidase-secreting activity
[2] = neutrophil-like differentiated HL-60 cells

Compound: MAVVGVSSVSRLLGRSRPQLGRPM [compound 009]
- EC50 [1]: 5 µM
- Activity (β-hexosaminidase-secreting activity class) [2]: ∘ (a peptide in which the β-hexosaminidase-secreting activity was confirmed at a concentration of 1 μM or less)

Compound: MLWNLLALHQIGQRTISTASHRH [compound 019]
- EC50 [1]: 0.23 µM
- Activity (β-hexosaminidase-secreting activity class) [2]: ⊚ (a peptide in which the β-hexosaminidase-secreting activity was confirmed at a concentration of 300 nM or less)

Compound: 021 (MAIQFRSLFPLALPGMLALLGWWWFFSRK) [compound 021]
- Activity (β-hexosaminidase-secreting activity class) [2]: ● (a peptide in which the β-hexosaminidase-secreting activity was confirmed at a concentration of 10 μM or less)

Compound: MLRLPTVFRQMRPVSRVLAPHLTRAY [compound 024]
- EC50 [1]: 1.1 µM
- Activity (β-hexosaminidase-secreting activity class) [2]: ⊚ (a peptide in which the β-hexosaminidase-secreting activity was confirmed at a concentration of 300 nM or less)

Compound: MASRLLRGAGTLAAQALRARGPSGAAAMRSM [compound 001]
- EC50 [1]: 23 µM
- Activity (β-hexosaminidase-secreting activity class) [2]: ● (a peptide in which the β-hexosaminidase-secreting activity was confirmed at a concentration of 10 μM or less)

Compound: 039 (MAASVVCRAATAGAQVLLRARRSPALLRTPALRS) [compound 039]
- EC50 [1]: > 40 µM
- Activity (β-hexosaminidase-secreting activity class) [2]: ● (a peptide in which the β-hexosaminidase-secreting activity was confirmed at a concentration of 10 μM or less)

Compound: 002 (MASRLLRGAGTLAAQALRARGPSGAAAMR) [compound 002]
- Activity (β-hexosaminidase-secreting activity class) [2]: ▴ (a peptide in which the β-hexosaminidase-secreting activity was confirmed at a concentration of 100 μM or less)

Compound: MSVLTPLLLRGLTGSARRLPVPRAK [No. 007]
- EC50 (differentiated HL-60 cells, read-out: EC50, β-hexosaminidase-secreting activity): 8 µM

Compound: 045 (MAAALLARASGPARRALCPRAWRQ) [compound 045]
- EC50 [1]: > 30 µM
- Activity (β-hexosaminidase-secreting activity class) [2]: ● (a peptide in which the β-hexosaminidase-secreting activity was confirmed at a concentration of 10 μM or less)

Compound: MFPLVKSALNRLQVRSIQQTMARQSHQKRT [compound 031]
- EC50 [1]: 0.2 µM
- Activity (β-hexosaminidase-secreting activity class) [2]: ⊚ (a peptide in which the β-hexosaminidase-secreting activity was confirmed at a concentration of 300 nM or less)

Compound: CC[C@H](C)[C@H](NC(=O)[C@H](CC(C)C)NC(=O)[C@@H](N)CCSC)C(=O)N1CCC[C@H]1C(=O)N[C@@H](Cc1ccccc1)C(=O)N[C@@H](CO)C(=O)N[C@@H](CCSC)C(=O)N[C@@H](CCCCN)C(=O)N[C@@H](CC(N)=O)C(=O)N[C@@H](CS)C(=O)N[C@@H](Cc1ccccc1)C(=O)N[C@@H](CCC(N)=O)C(=O)N[C@@H](CC(C)C)C(=O)N[C@@H](CC(C)C)C(=O)N[C@@H](CS)C(=O)N[C@@H](CC(N)=O)C(=O)N[C@@H](CS)C(=O)N[C@@H](CCC(N)=O)C(=O)N[C@H](C(=O)N1CCC[C@H]1C(=O)N[C@@H](C)C(=O)N[C@@H](C)C(=O)NCC(=O)N[C@@H](Cc1ccccc1)C(=O)N[C@@H](CCCCN)C(=O)O)C(C)C [compound 030] (H-MLIPFSMKNCFQLLCNCQVPAAGFK-OH; N-terminus and C-terminus assumed)
- EC50 [1]: 1 µM
- Activity (β-hexosaminidase-secreting activity class) [2]: ∘ (a peptide in which the β-hexosaminidase-secreting activity was confirmed at a concentration of 1 μM or less)

Compound: MKLLTRAGSFSRFY [compound 040]
- EC50 [1]: 2 µM
- Activity (β-hexosaminidase-secreting activity class) [2]: ⊚ (a peptide in which the β-hexosaminidase-secreting activity was confirmed at a concentration of 300 nM or less)

Compound: MLRNLLALRQIGQRTISTASRRH [compound 012]
- EC50 [1]: 0.78 µM
- Activity (β-hexosaminidase-secreting activity class) [2]: ∘ (a peptide in which the β-hexosaminidase-secreting activity was confirmed at a concentration of 1 μM or less)

Compound: MALLTAAARLLGTKNASCLVLAARHAS [compound 050]
- EC50 [1]: 7 µM
- Activity (β-hexosaminidase-secreting activity class) [2]: ● (a peptide in which the β-hexosaminidase-secreting activity was confirmed at a concentration of 10 μM or less)

Compound: 016 (MPLLRGRCPARRHYRRLALLGLQPAPRFA) [compound 016]
- EC50 [1]: > 20 µM
- Activity (β-hexosaminidase-secreting activity class) [2]: ● (a peptide in which the β-hexosaminidase-secreting activity was confirmed at a concentration of 10 μM or less)

Compound: 005 (MASRLLRGAGTLAAQALR) [compound 005]
- Activity (β-hexosaminidase-secreting activity class) [2]: ▴ (a peptide in which the β-hexosaminidase-secreting activity was confirmed at a concentration of 100 μM or less)

Compound: MFPLVKSALNRLQVRSIQQTMARQ [compound 015]
- EC50 [1]: 0.38 µM
- Activity (β-hexosaminidase-secreting activity class) [2]: ⊚ (a peptide in which the β-hexosaminidase-secreting activity was confirmed at a concentration of 300 nM or less)

Compound: MLATRVFSLVGKRAISTSVCVR [compound 018]
- EC50 [1]: 6.1 µM
- Activity (β-hexosaminidase-secreting activity class) [2]: ∘ (a peptide in which the β-hexosaminidase-secreting activity was confirmed at a concentration of 1 μM or less)

Compound: MSVLTPLLLRGLTGSARRLPVPRAKIHSLPPEGK [compound 033]
- EC50 [1]: 6 µM
- Activity (β-hexosaminidase-secreting activity class) [2]: ∘ (a peptide in which the β-hexosaminidase-secreting activity was confirmed at a concentration of 1 μM or less)

Compound: MFRRPVLQVLRQFVRH [compound 037]
- EC50 [1]: 0.11 µM
- Activity (β-hexosaminidase-secreting activity class) [2]: ⊚ (a peptide in which the β-hexosaminidase-secreting activity was confirmed at a concentration of 300 nM or less)

Compound: MFPLARNALSSLKIQSILQSMARH [compound 048]
- EC50 [1]: 0.1 µM
- Activity (β-hexosaminidase-secreting activity class) [2]: ⊚ (a peptide in which the β-hexosaminidase-secreting activity was confirmed at a concentration of 300 nM or less)

Compound: MALVHKLLRGTYFLRKFSKPTSAL [compound 025]
- EC50 [1]: 1.9 µM
- Activity (β-hexosaminidase-secreting activity class) [2]: ⊚ (a peptide in which the β-hexosaminidase-secreting activity was confirmed at a concentration of 300 nM or less)

Compound: MAAVVALSLRRRLPATTLGGACLQASRG [compound 026]
- EC50 [1]: 10 µM
- Activity (β-hexosaminidase-secreting activity class) [2]: ● (a peptide in which the β-hexosaminidase-secreting activity was confirmed at a concentration of 10 μM or less)

Compound: MALRAKAEVCMAVPWLSLQRAQAL [compound 049]
- EC50 [1]: 2 µM
- Activity (β-hexosaminidase-secreting activity class) [2]: ● (a peptide in which the β-hexosaminidase-secreting activity was confirmed at a concentration of 10 μM or less)

Compound: CC[C@H](C)[C@H](NC(=O)[C@H](CS)NC(=O)[C@H](CC(C)C)NC(=O)[C@H](CCC(N)=O)NC(=O)[C@@H]1CCCN1C(=O)[C@H](CO)NC(=O)[C@H](Cc1ccccc1)NC(=O)[C@H](Cc1c[nH]cn1)NC(=O)[C@H](C)NC(=O)[C@H](CCCNC(=N)N)NC(=O)[C@H](CC(C)C)NC(=O)[C@H](CS)NC(=O)[C@H](Cc1c[nH]cn1)NC(=O)[C@H](CCCNC(=N)N)NC(=O)CNC(=O)[C@@H](NC(=O)[C@H](Cc1c[nH]cn1)NC(=O)[C@H](CCCNC(=N)N)NC(=O)[C@H](CC(C)C)NC(=O)[C@H](CC(C)C)NC(=O)[C@H](CC(C)C)NC(=O)[C@H](C)NC(=O)[C@H](C)NC(=O)[C@@H](N)CCSC)C(C)C)C(=O)N[C@@H](CCCNC(=N)N)C(=O)N[C@@H](CC(N)=O)C(=O)N[C@@H](C)C(=O)N[C@H](C(=O)N1CCC[C@H]1C(=O)N[C@@H](CC(C)C)C(=O)O)C(C)C [compound 023] (H-MAALLLRHVGRHCLRAHFSPQLCIRNAVPL-OH; N-terminus and C-terminus assumed)
- EC50 [1]: 0.3 µM
- Activity (β-hexosaminidase-secreting activity class) [2]: ⊚ (a peptide in which the β-hexosaminidase-secreting activity was confirmed at a concentration of 300 nM or less)

Compound: 046 (MLPAALLRRPGLGRLVRHARAY) [compound 046]
- EC50 [1]: > 5 µM
- Activity (β-hexosaminidase-secreting activity class) [2]: ∘ (a peptide in which the β-hexosaminidase-secreting activity was confirmed at a concentration of 1 μM or less)

Compound: 047 (MLSALARPVSAALRRSFSTSAQNN) [compound 047]
- EC50 [1]: > 20 µM
- Activity (β-hexosaminidase-secreting activity class) [2]: ● (a peptide in which the β-hexosaminidase-secreting activity was confirmed at a concentration of 10 μM or less)

Compound: MASRLLRGAGTLAAQALRA [compound 004]
- EC50 [1]: 15 µM
- Activity (β-hexosaminidase-secreting activity class) [2]: ● (a peptide in which the β-hexosaminidase-secreting activity was confirmed at a concentration of 10 μM or less)

Compound: 006 (MGGLWRPGWRCVPFCGWRWI) [compound 006]
- Activity (β-hexosaminidase-secreting activity class) [2]: ▴ x
